This note sets out measurements from US9643967B2, “Pyrrolo[3,2-c]pyridine derivatives as TLR inhibitors” (TAKEDA PHARMACEUTICAL COMPANY LIMITED, priority 2013, dated 2017).

Where two headings read alike, the source gives them in different places.

In the experiment the target is T1, mTLR7 (Mus musculus, UniProt P58681).
T1 construct: Splenocytes isolated from male C57/BL6 mice; from tissue; host or cells: splenocytes from the spleen of male C57BL/6 mice
T1 sequence (P58681 27-1050): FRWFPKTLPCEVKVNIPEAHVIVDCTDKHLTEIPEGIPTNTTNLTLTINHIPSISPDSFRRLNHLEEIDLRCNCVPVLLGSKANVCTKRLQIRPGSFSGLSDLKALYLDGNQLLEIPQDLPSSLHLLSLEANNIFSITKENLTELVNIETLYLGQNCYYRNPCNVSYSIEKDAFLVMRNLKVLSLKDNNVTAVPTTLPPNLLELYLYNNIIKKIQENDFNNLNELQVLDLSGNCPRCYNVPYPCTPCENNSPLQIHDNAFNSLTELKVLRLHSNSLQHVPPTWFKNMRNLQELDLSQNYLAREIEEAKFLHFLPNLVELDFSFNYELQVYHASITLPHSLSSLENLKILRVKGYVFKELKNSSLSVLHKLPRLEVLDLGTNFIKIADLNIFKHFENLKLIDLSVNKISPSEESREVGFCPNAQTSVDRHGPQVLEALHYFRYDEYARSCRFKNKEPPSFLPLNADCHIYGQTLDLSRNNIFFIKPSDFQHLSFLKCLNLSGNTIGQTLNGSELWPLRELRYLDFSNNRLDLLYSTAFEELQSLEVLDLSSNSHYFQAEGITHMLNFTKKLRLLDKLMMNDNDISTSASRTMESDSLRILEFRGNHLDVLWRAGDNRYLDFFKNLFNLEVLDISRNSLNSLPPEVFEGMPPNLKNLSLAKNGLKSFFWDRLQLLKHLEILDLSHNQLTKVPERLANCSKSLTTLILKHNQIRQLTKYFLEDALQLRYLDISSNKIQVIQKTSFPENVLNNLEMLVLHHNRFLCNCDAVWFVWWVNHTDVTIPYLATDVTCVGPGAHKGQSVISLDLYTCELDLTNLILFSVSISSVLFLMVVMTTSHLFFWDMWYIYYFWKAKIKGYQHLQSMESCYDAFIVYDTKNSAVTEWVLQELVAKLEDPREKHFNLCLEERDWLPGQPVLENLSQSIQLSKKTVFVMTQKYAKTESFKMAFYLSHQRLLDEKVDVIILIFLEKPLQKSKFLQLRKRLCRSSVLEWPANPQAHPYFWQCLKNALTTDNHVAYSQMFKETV
The experiment in a line: mTLR7 antagonism (IL-6 and TNF-α release assay) in mouse splenocytes, R0006/DOTAP stimulated. It counts as cell-based. From the text: mTLR9 and mTLR7 Antagonism (Cytokine Release Assay) in Mouse Splenocytes
TLR7 ligand R0006 (IDT, 5′-rU*rU*rG*rU*rU*rG*rU*rU*rG*rU*rU*rG*rU*rU*rG*rU*rU*rG*rU*rU-3′ (SEQ ID NO:1)), Liposomal transfection reagent—DOTAP (Roche, Cat. No. 11202375001), TLR9 ligand CpG ODN2006 (Sequence: T*C*G*T*C*G*T*T*T*T*G*T*C*G*T*T*T*T*G*T*C*G*T*T; *=phosphorothioate (SEQ ID NO:2)) DMSO (Sigma, D2650), RPMI Powder (Sigma, R6504), Fetal Bovine Serum (Gibco, 10270), Dulbecco's Phosphate Buffered Saline (Sigma, D1408), 96 well plate (Flat bottom, Costar 3599), ELISA kit for IL-6 (EBioscience, 88-7064-77 and TNFa (EBioscience, 88-7346-88), MACS Buffer (AutoMACS Rinsing Solution (Miltenyl Biotec, 130-091-222)+0.05% BSA), RBC lysis buffer (0.85% NH4Cl), 40 μm cell strainer (BD Falcon, 352340) Method: A. Isolation of Mouse Splenocytes
Mouse spleen was isolated from C57BL6 mouse and stored in 1× chilled PBS buffer until further processed. Spleen was transferred to a sterile petriplate and chopped in to 5-6 pieces in presence of MACS buffer (100 μl) with the help of fresh surgical blade and crushed with flat plunger of a sterile syringe. A uniform suspension was prepared by passing cells through a 40 μm cell strainer. Cells were centrifuged at 450×g for 5 minutes at 4° C., supernatant was discarded and pellet dislodged gently, resuspended in 2 ml of pre-warmed (37° C.) RBC lysis buffer at room temperature with continuous gentle mixing with 1 ml pipette. Lysis buffer was neutralized with 12 ml of chilled MACS buffer and cells were passed through 40 μm cell strainer. Cell suspension was collected in 15 ml MACS buffer and centrifuged at 450×g for 5 minutes at 4° C. Pellet was resuspended in 15 ml MACS buffer and centrifuged at 400×g for 5 minutes. Cells were resuspended in 10 ml of RPMI complete medium and viability was estimated by Trypan blue method.
mTLR7 Antagonism (IL-6 and TNF-α Release Assay):
1 mg/ml stock of R0006 was prepared in sterile, endotoxin-free water. R0006 stock was diluted 10 fold with DOTAP and incubated for 30 minutes to form liposome complex (100 μg/ml of R0006). This complex was further diluted 10 fold with incomplete RPMI media (10 μg/ml of R0006) to achieve the final agonist concentration of 1 μg/ml. DOTAP alone was diluted 10 fold in incomplete RPMI media. NCEs were added in a concentration range of 30 μM to 1 nM in respective wells of assay plate, assay medium containing 0.3% DMSO were added to control wells. 0.2 million splenocytes were added to all the wells and incubated at 37° C. in 5% CO2 incubator for 30 minutes. 1 μg/ml of respective agonist was added to all the wells except those were assigned as negative controls and mixed thoroughly. DOTAP was added to negative control wells and incubated overnight at 37° C./5% CO2. The plate was centrifuged at 450×g for 5 minutes at room temperature and the supernatant was collected. ELISA was performed as per manufacturer's protocol. S/B Ratio, % Activity and % Inhibition was calculated using MS Excel. IC50 and inhibition curve was generated using Graph Pad Prism.

Setting [1] is: 1 μM, IL-6 release, mouse splenocytes, read-out: mTLR7 inhibitory activity (% at 1 μM), IL-6.
[2] abbreviates: 1 μM, TNF-α release, mouse splenocytes, read-out: mTLR7 inhibitory activity (% at 1 μM), TNF-α.

As to `CC(C)N1CCN(Cc2ccc(-c3nccc4[nH]c(CN5CCOCC5)cc34)cc2)CC1` [Example A55, 4-[[4-[4-[(4-isopropylpiperazin-1-yl)methyl]phenyl]-1H-pyrrolo[3,2-c]pyridin-2-yl]methyl]morpholine], the inhibition at 1 µM was found to be 100% under setting [1] and 33% under setting [2].

Regarding `CC(C)N1CCC(Oc2ccc(-c3nccc4[nH]c(CN5CCOCC5)cc34)cc2)CC1` [Example A56, 4-[[4-[4-[(1-isopropyl-4-piperidyl)oxy]phenyl]-1H-pyrrolo[3,2-c]pyridin-2-yl]methyl]morpholine], under setting [2], the inhibition at 1 µM turned out to be 64%. For `CC(C)N1CCN(c2cccc(-c3nccc4[nH]c(CN5CCOCC5)cc34)c2)CC1` [Example A57, 4-[[4-[3-(4-isopropylpiperazin-1-yl)phenyl]-1H-pyrrolo[3,2-c]pyridin-2-yl]methyl]morpholine], the inhibition at 1 µM is 80% under setting [1] and 79% under setting [2].

As for `CN1CCN(Cc2ccc(-c3nccc4[nH]c(CN5CCOCC5)cc34)cc2)CC1` [Example A60, 4-[[4-[4-[(4-methylpiperazin-1-yl)methyl]phenyl]-1H-pyrrolo[3,2-c]pyridin-2-yl]methyl]morpholine], the inhibition at 1 µM under setting [2] turned out to be 29%. On to `CN1CCN(c2cccc(-c3nccc4[nH]c(CN5CCOCC5)cc34)c2)CC1` [Example A61, 4-[[4-[3-(4-methylpiperazin-1-yl)phenyl]-1H-pyrrolo[3,2-c]pyridin-2-yl]methyl]morpholine], for which the inhibition at 1 µM under setting [1] came to 78% and the inhibition at 1 µM under setting [2] worked out at 74%. For the compound `CN1CCC(Oc2ccc(-c3nccc4[nH]c(CN5CCOCC5)cc34)cc2)CC1` [Example A62, 4-[[4-[4-[(1-methyl-4-piperidyl)oxy]phenyl]-1H-pyrrolo[3,2-c]pyridin-2-yl]methyl]morpholine], the inhibition at 1 µM under setting [2] was found to be 75%. For the compound `CN1CCC(n2cc(-c3nccc4[nH]c(CN5CCOCC5)cc34)cn2)CC1` [Example A63, 4-[[4-[1-(1-methyl-4-piperidyl)pyrazol-4-yl]-1H-pyrrolo[3,2-c]pyridin-2-yl]methyl]morpholine], the inhibition at 1 µM under setting [2] came out at 0%.

`CC(C)N1CCC(c2ccc(-c3nccc4[nH]c(CN5CCOCC5)cc34)cn2)CC1` [Example A64, 4-[[4-[6-(1-isopropyl-4-piperidyl)-3-pyridyl]-1H-pyrrolo[3,2-c]pyridin-2-yl]methyl]morpholine]: the inhibition at 1 µM runs as follows: under setting [1], 13%; under setting [2], 4%. `CC(C)N1CCC(c2ccc(-c3nccc4[nH]c(CN5CCOCC5)cc34)cc2)CC1` [Example A70, 4-[[4-[4-(1-isopropyl-4-piperidyl)phenyl]-1H-pyrrolo[3,2-c]pyridin-2-yl]methyl]morpholine]: the inhibition at 1 µM runs as follows: under setting [1], 100%; under setting [2], 36%. For `CC(C)N1CCN(c2ccc(-c3nccc4[nH]c(CN5CC(O)C5)cc34)cc2)CC1` [Example A72, 1-[[4-[4-(4-isopropylpiperazin-1-yl)phenyl]-1H-pyrrolo[3,2-c]pyridin-2-yl]methyl]azetidin-3-ol] the same measures were 0% and 14%. Take `CC(C)N1CCN(c2ccc(-c3nccc4[nH]c(CN5CCC[C@@H]5C(=O)O)cc34)cc2)CC1` [Example A74, (2R)-1-[[4-[4-(4-isopropylpiperazin-1-yl)phenyl]-1H-pyrrolo[3,2-c]pyridin-2-yl]methyl]pyrrolidine-2-carboxylic acid]: under setting [2], the inhibition at 1 µM is 32%. `CC(C)N1CCN(C2CCC(c3nccc4[nH]c(CN5CCOCC5)cc34)CC2)CC1` (stereo not drawn) [Example A80, 4-[[4-[4-(4-isopropylpiperazin-1-yl)cyclohexyl]-1H-pyrrolo[3,2-c]pyridin-2-yl]methyl]morpholine]: the inhibition at 1 µM by setting is: under setting [1], 18%; under setting [2], 16%. Consider `c1cc2[nH]c(CN3CCOCC3)cc2c(-c2ccc(N3CCN(C4COC4)CC3)cc2)n1` [Example A81, 4-[[4-[4-[4-(oxetan-3-yl)piperazin-1-yl]phenyl]-1H-pyrrolo[3,2-c]pyridin-2-yl]methyl]morpholine], for which the inhibition at 1 µM is, setting by setting: under setting [1], 25%; under setting [2], 24%. Consider `CC(C)N1CCN(c2ccc(-c3nccc4[nH]c(C(=O)N5CCOCC5)cc34)cc2)CC1` [Example A82, [4-[4-(4-isopropylpiperazin-1-yl)phenyl]-1H-pyrrolo[3,2-c]pyridin-2-yl]-morpholino-methanone], for which the inhibition at 1 µM runs as follows: (read-out: mTLR7 inhibitory activity (% at 1 μM), IL-6) 86%; (read-out: mTLR7 inhibitory activity (% at 1 μM), TNF-α) 24%. Take `CC(C)N1CCN(c2ccc(-c3nccc4[nH]c(CCN5CCOCC5)cc34)cc2)CC1` [Example B1, 4-[2-[4-[4-(4-isopropylpiperazin-1-yl)phenyl]-1H-pyrrolo[3,2-c]pyridin-2-yl]ethyl]morpholine]: the inhibition at 1 µM under setting [1] worked out at 100% and the inhibition at 1 µM under setting [2] stood at 100%. For the compound `CN1CCN(c2ccc(-c3nccc4[nH]c(CCN5CCOCC5)cc34)cc2)CC1` [Example B2, 4-[2-[4-[4-(4-methylpiperazin-1-yl)phenyl]-1H-pyrrolo[3,2-c]pyridin-2-yl]ethyl]morpholine], the inhibition at 1 µM under setting [1] came to 100% and the inhibition at 1 µM under setting [2] was 100%. For the compound `Cc1cc2[nH]c(CCN3CCOCC3)cc2c(-c2ccc(N3CCN(C(C)C)CC3)cc2)n1` [Example B3, 4-[2-[4-[4-(4-isopropylpiperazin-1-yl)phenyl]-6-methyl-1H-pyrrolo[3,2-c]pyridin-2-yl]ethyl]morpholine], under setting [2], the inhibition at 1 µM worked out at 100%.

Regarding `Cc1cc2[nH]c(CCN3CCOCC3)cc2c(-c2ccc(N3CCN(C)CC3)cc2)n1` [Example B4, 4-[2-[6-methyl-4-[4-(4-methylpiperazin-1-yl)phenyl]-1H-pyrrolo[3,2-c]pyridin-2-yl]ethyl]morpholine], the inhibition at 1 µM under setting [2] is 100%.

With `Cc1cc2[nH]c(CCN3CCCCC3)cc2c(-c2ccc(N3CCN(C(C)C)CC3)cc2)n1` [Example B5, 4-[4-(4-isopropylpiperazin-1-yl)phenyl]-6-methyl-2-[2-(1-piperidyl)ethyl]-1H-pyrrolo[3,2-c]pyridine], the inhibition at 1 µM under setting [2] is 100%.
